Reference: US5973188A (priority 1993, dated 1999)

The molecules below were run on ADP-induced aggregation of platelets in human PRP (assay: animal or person). Conditions: Platelet, po, read-out: ID50 (dose administered orally that inhibits by 50% the ADP-induced ex vivo aggregation of platelets in human PRP).

SMILES	ED50 [mg/kg]
COCCOC(=O)COc1ccc(C(=O)[C@H](C)NC(=O)c2ccc(C(=N)N)cc2)cc1 [Example 22, 2-methoxy-ethyl (S)-4-[2-[4-(amino-imino-methyl)-benzoylamino]-propionyl]-phenoxyacetate]	1.8
CCOC(=O)COc1ccc(C(=O)[C@H](COC(C)=O)NC(=O)c2ccc(C(=N)N)cc2)cc1 [Example 24, ethyl (S)-4-[2-[4-(amino-imino-methyl)-benzoylamino]-3-acetoxy-propionyl]-phenoxy-acetate]	2.3
CCOC(=O)COc1ccc(C(=O)[C@H](C)NC(=O)c2ccc(C(=N)NC(=O)Oc3ccccc3)cc2)cc1 [Example 36, ethyl (S)-4-[2-[4-(imino-phenoxycarbonylamino-methyl)-benzoylamino]-propionyl]-phenoxyacetate]	0.5
CC(C)COC(=O)NC(=N)c1ccc(C(=O)CC(C)C(=O)N2CCC(OCC(=O)OC(C)C)CC2)cc1 (racemic) [Example 85, isopropyl (RS)-[1-[4-[4-(Isobutoxycarbonylamino-imino-methyl)-phenyl]-2-methyl-4-oxo-butyryl]-piperidin-4-yloxy]-acetate]	0.4
CC(C)OC(=O)COC1CCN(C(=O)[C@H](C)NC(=O)c2ccc(C(N)=NO)cc2)CC1 (mixture of isomers) [Example 76, isopropyl (E/Z)-(S)-1-[2-[4-(amino-hydroxyimino-methyl)-benzoylamino]-propionyl]-piperidin-4-yloxyacetate]	0.2
CCOC(=O)N=C(N)c1ccc(C(=O)N[C@@H](C)C(=O)N2CCC(OCC(=O)OC(C)C)CC2)cc1 (mixture of isomers) [Example 60, isopropyl (E/Z)-(S)-1-[2-[4-(amino-ethoxycarbonylimino-methyl)-benzoylamino]-propionyl]-piperidin-4-yloxyacetate]	0.3
C[C@H](NC(=O)c1ccc(C(=N)N)cc1)C(=O)c1ccc(OCC(=O)OCC2CC2)cc1 [Example 3, cyclopropylmethyl (S)-4-[2-[4-(amino-imino-methyl)-benzoylamino]-propionyl]-phenoxyacetate]	2.7
COCCOC(=O)COc1ccc(C(=O)[C@H](C)NC(=O)c2ccc(C(=N)NC(=O)OCCOC)cc2)cc1 [Example 40, 2-methoxy-ethyl (S)-^4-[2-[4-[imino-(2-methoxy-ethoxy-carbonylamino)-methyl]-benzoylamino]-propionyl]-phenoxyacetate]	0.6
CCOC(=O)COc1ccc(C(=O)[C@H](CO)NC(=O)c2ccc(C(=N)N)cc2)cc1 [Example 9, ethyl (S)-4-[2-[4-(amino-imino-methyl)-benzoylamino]-3-hydroxy-propionyl]-phenoxyacetate]	1.4
COc1ccc(C[C@H](NC(=O)c2ccc(CN)cn2)C(=O)N2CCC(OCC(=O)OC(C)C)CC2)cc1 [Example 72, isopropyl (S)-1-[2-(5-aminomethyl-pyridin-2-ylcarbonylamino)-3-(4-methoxy-phenyl)-propionyl]-piperidin-4-yloxyacetate]	2.7
CCOC(=O)COc1ccc(C(=O)C(CSC)NC(=O)c2ccc(C(=N)NC(=O)OCC)cc2)cc1 (racemic) [Example 27, ethyl (R,S)-4-[2-[4-(ethoxycarbonylamino-imino-methyl)-benzoylamino]-3-methylsulphanyl-propionyl]-phenoxyacetate]	4.3
C[C@H](NC(=O)c1ccc(C(=N)N)cn1)C(=O)N1CCC(OCC(=O)OC2CCOCC2)CC1 [Example 63, tetrahydropyran-4-yl (S)-1-[2-(5-amino-imino-methyl-pyridin-2-ylcarbonylamino)-propionyl]-piperidin-4-yloxy-acetate]	1.1
CCOC(=O)COc1ccc(C(=O)[C@H](C)NC(=O)c2ccc(/C(N)=N/O)cc2)cc1 [Example 41, ethyl (Z)-(S)-4-[2-[4-(amino-hydroxyimino-methyl)-benzoylamino]-propionyl]-phenoxyacetate]	0.2
C[C@H](NC(=O)c1ccc(C(=N)N)cc1)C(=O)c1ccc(OCC(=O)OC2CCCCC2)cc1 [Example 4, cyclohexyl (S)-4-[2-[4-(amino-imino-methyl)-benzoylamino]-propionyl]-phenoxyacetate]	2.1
COc1ccc(C[C@H](NC(=O)c2ccc(C(=N)N)cc2)C(=O)c2ccc(OCC(=O)O)cc2)cc1 [Example 11, (S)-4-[2-[4-(amino-imino-methyl)-benzoylamino]-3-(4-methoxy-phenyl)-propionyl]-phenoxyacetic acid]	3.1
CCOC(=O)COc1ccc(C(=O)[C@@H](NC(=O)c2ccc(C(=N)N)cc2)[C@@H](C)O)cc1 [Example 20, ethyl (2S,3R)-4-[2-[4-(amino-imino-methyl)-benzoylamino]-3-hydroxy-butyryl]-phenoxyacetate]	2.4
CCOC(=O)N=C(N)c1ccc(C(=O)N[C@@H](Cc2ccc(OC(=O)c3ccco3)cc2)C(=O)N2CCC(OCC(=O)OC(C)C)CC2)cc1 (mixture of isomers) [Example 51, (E/Z)-(S)-4-[2-[4-(amino-ethoxycarbonylimino-methyl)-benzoylamino]-3-(4-isopropoxy-carbonylmethoxy-piperidin-1-yl)-3-oxo-propyl]-phenyl furan-2-carboxylate]	3.9
CCOC(=O)COc1ccc(C(=O)[C@H](C)NC(=O)c2ccc(C(=N)NC(=O)OCCOC)cc2)cc1 [Example 28, ethyl (S)-4-[2-[4-[imino-2-(methoxy-ethoxycarbonylamino)-methyl]-benzoylamino]-propionyl]-phenoxyacetate]	0.3
CCOC(=O)COc1ccc(C(=O)[C@H](C)NC(=O)c2ccc(C(=N)NC(=O)OC3CCOCC3)cc2)cc1 [Example 38, ethyl (S)-4-[2-[4-[imino-(tetrahydro-pyran-4-yloxy-carbonylamino)-methyl]-benzoylamino]-propionyl]-phenoxyacetate]	2.9
CCOC(=O)NC(=N)c1ccc(C(=O)N[C@@H](C)C(=O)c2ccc(OCC(=O)OC3CCOCC3)cc2)cc1 [Example 33, tetrahydropyran-4-yl (S)-4-[2-[4-(ethoxycarbonylamino-imino-methyl)-benzoylamino]-propionyl]-phenoxyacetate]	0.6
CCOC(=O)N=C(N)c1ccc(C(=O)N[C@@H](Cc2ccc(OC(=O)c3ccccc3N)cc2)C(=O)N2CCC(OCC(=O)OC(C)C)CC2)cc1 (mixture of isomers) [Example 50, (E/Z)-(S)-4-[2-[4-(amino-ethoxycarbonylimino-methyl)-benzoylamino]-3-(4-isopropoxy-carbonylmethoxy-piperidin-1-yl)-3-oxo-propyl]-phenyl 2-amino-benzoate]	1.3
CCOC(=O)COc1ccc(C(=O)[C@H](C)NC(=O)COC2CCNCC2)cc1 [Example 29, ethyl (S)-4-(2-piperidin-4-yloxyacetylamino-propionyl)-phenoxyacetate]	1
CCOC(=O)N=C(N)c1ccc(C(=O)N[C@@H](Cc2ccc(OC(=O)OCC)cc2)C(=O)N2CCC(OCC(=O)OC(C)C)CC2)cc1 (mixture of isomers) [Example 49, Isopropyl (E/Z)-(S)-1-[2-[4-(amino-ethoxycarbonylimino-methyl)-benzoylamino]-3-(4-ethoxycarbonyloxy-phenyl)-propionyl]-piperidin-4-yloxyacetate]	1.2
CCOC(=O)COc1ccc(C(=O)C(C)NC(=O)c2ccc(C(N)=NOC(=O)OCC)cc2)cc1 (racemic) [Example 35, ethyl (Z)-(R,S)-4-[2-[4-[amino-ethoxycarbonyloximino-methyl]-benzoylamino]-propionyl]-phenoxyacetate]	0.5
CCOC(=O)COc1ccc(C(=O)C(C)NC(=O)c2ccc(C(N)=NO)cc2)cc1 (racemic) [Example 32, ethyl (Z)-(R,S)-4-[2-[4-[amino-hydroxyimino-methyl]-benzoylamino]-propionyl]-phenoxyacetate]	0.2
CCOC(=O)N=C(N)c1ccc(C(=O)N[C@@H](Cc2ccc(OC(=O)c3ccccc3OC(C)=O)cc2)C(=O)N2CCC(OCC(=O)OC(C)C)CC2)cc1 (mixture of isomers) [Example 53, (E/Z)-(S)-4-[2-[4-(amino-ethoxycarbonylimino-methyl)-benzoylamino]-3-(4-isopropoxy-carbonylmethoxy-piperidin-1-yl)-3-oxo-propyl]-phenyl 2-acetoxy-benzoate]	1.5
CCOC(=O)NC(=N)c1ccc(C(=O)CCC(=O)N2CCC(OCC(=O)OC(C)C)CC2)cc1 [Example 80, isopropyl [1-[4-[4-(ethoxycarbonylamino-imino-methyl)-phenyl]-4-oxo-butyryl]-piperidin-4-yloxy]-acetate]	0.7
